“And” between values parts separate entries of the source, which are not always exact repeats. Identical values can stand only once.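 Following 48 hours of exposure in 96-well plates, responses at five concentrations were used to interpolate endpoints linearly. GI50 = concentration required for 50% inhibition of growth.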 The source made the active and inactive calls. No stated cut-off is given here; in the data, active = GI50 up to about 1.1 µM and inactive = higher.
How the values were obtained:
Assay in all cases: NCI tumour cell line growth inhibition, 48 h
NCI-H460 = system: NCI-H460
NCI-H23 = system: NCI-H23
ACHN = system: ACHN
SR = system: SR
SNB-19 = system: SNB-19
SF-295 = system: SF-295
HT-29 = system: HT-29
SF-539 = system: SF-539
SK-OV-3 = system: SK-OV-3
SN12C = system: SN12C
RXF 393 = system: RXF 393
U-251 = system: U-251
NCI-H522 = system: NCI-H522
M14 = system: M14
OVCAR-5 = system: OVCAR-5
A498 = system: A498
CCRF-CEM = system: CCRF-CEM

Structure (SMILES) | GI50 (NCI-H460) | GI50 (NCI-H23) | GI50 (ACHN) | GI50 (SR) | GI50 (SNB-19) | GI50 (SF-295) | GI50 (HT-29) | GI50 (SF-539) | GI50 (SK-OV-3) | GI50 (SN12C) | GI50 (RXF 393) | GI50 (U-251) | GI50 (NCI-H522) | GI50 (M14) | GI50 (OVCAR-5) | GI50 (A498) | GI50 (CCRF-CEM)
S=c1sc2c(Cl)ncnc2n1-c1ccccc1 | 15.7 µM (inactive) | 17.4 µM (inactive) | 16.5 µM (inactive) | 3.27 µM (inactive) | 18.2 µM (inactive) | 12.8 µM (inactive) | 11.4 µM (inactive) | 16.3 µM (inactive) | 20 µM (inactive) | 15.8 µM (inactive) | 15.1 µM (inactive) | 16 µM (inactive) | 2.01 µM (inactive) | 13.3 µM (inactive) | 22.9 µM (inactive) | 16.6 µM (inactive) | –
COc1cc(-c2cc(=O)c3cc(C)c(C)c(C(=O)O)c3o2)cc(OC)c1OC | > 100 µM (inactive) | > 100 µM (inactive) | > 100 µM (inactive) | – | > 100 µM (inactive) | > 100 µM (inactive) | > 100 µM (inactive) | > 100 µM (inactive) | > 100 µM (inactive) | > 100 µM (inactive) | – | > 100 µM (inactive) | 67.6 µM (inactive) | > 100 µM (inactive) | > 100 µM (inactive) | > 100 µM (inactive) | > 100 µM (inactive)
CC(=O)O[C@H]1CCC2[C@@H]3CCC4=C(O)c5nocc5C[C@]4(C)C3CC[C@@]21C (stereo partly specified) | > 100 µM (inactive) | > 100 µM (inactive) | > 100 µM (inactive) | – | > 100 µM (inactive) | > 100 µM (inactive) | > 100 µM (inactive) | > 100 µM (inactive) | > 100 µM (inactive) | > 100 µM (inactive) | > 100 µM (inactive) | > 100 µM (inactive) | > 100 µM (inactive) | > 100 µM (inactive) | > 100 µM (inactive) | > 100 µM (inactive) | > 100 µM (inactive)
NC(=O)/C(=N\NC(=O)C[n+]1ccccc1)C1NC(=O)NC1=O (stereo unspecified) | > 100 µM (inactive) | > 100 µM (inactive) | > 100 µM (inactive) | > 100 µM (inactive) | > 100 µM (inactive) | > 100 µM (inactive) | > 100 µM (inactive) | > 100 µM (inactive) | > 100 µM (inactive) | > 100 µM (inactive) | > 100 µM (inactive) | – | – | > 100 µM (inactive) | > 100 µM (inactive) | > 100 µM (inactive) | > 100 µM (inactive)
CCCC(=O)c1c(NOC2OC(COC(C)=O)C(OC(C)=O)C(OC(C)=O)C2OC(C)=O)nc(OC)n(C)c1=O (stereo unspecified) | > 100 µM (inactive) | > 100 µM (inactive) | > 100 µM (inactive) | > 100 µM (inactive) | > 100 µM (inactive) | > 100 µM (inactive) | > 100 µM (inactive) | > 100 µM (inactive) | – | > 100 µM (inactive) | > 100 µM (inactive) | > 100 µM (inactive) | > 100 µM (inactive) | > 100 µM (inactive) | > 100 µM (inactive) | – | > 100 µM (inactive)
O=c1[nH]cnc2c1nnn2C1C=C(CO)C(O)C1O (stereo unspecified) | > 100 µM (inactive) | > 100 µM (inactive) | > 100 µM (inactive) | > 100 µM (inactive) | > 100 µM (inactive) | > 100 µM (inactive) | > 100 µM (inactive) | > 100 µM (inactive) | > 100 µM (inactive) | > 100 µM (inactive) | > 100 µM (inactive) | > 100 µM (inactive) | – | > 100 µM (inactive) | > 100 µM (inactive) | > 100 µM (inactive) | > 100 µM (inactive)
Cc1ccc(S(=O)(=O)OCC23CCC(C4CC42)C2CC23)cc1 (stereo unspecified) | 88.1 µM (inactive) | 48.8 µM (inactive) | > 100 µM (inactive) | 38.5 µM (inactive) | > 100 µM (inactive) | 50.8 µM (inactive) | 43.8 µM (inactive) | – | > 100 µM (inactive) | > 100 µM (inactive) | – | > 100 µM (inactive) | – | > 100 µM (inactive) | > 100 µM (inactive) | 96.2 µM (inactive) | 22.8 µM (inactive)
C[C@]12CCC3[C@@H](CC[C@@H]4c5nonc5CC[C@]34C)C1CC[C@@H]2O (stereo partly specified) | 25.9 µM (inactive) | 32.1 µM (inactive) | 23.6 µM (inactive) | – | 41.6 µM (inactive) | 34.8 µM (inactive) | 32.7 µM (inactive) | 17.4 µM (inactive) | 30.5 µM (inactive) | 22.1 µM (inactive) | 24.8 µM (inactive) | 19.9 µM (inactive) | 17.8 µM (inactive) | 23.6 µM (inactive) | > 100 µM (inactive) | 25.2 µM (inactive) | 22 µM (inactive)
Cc1ccc(NCC(=O)N2CC(=O)Nc3ccccc32)c(C)c1 | > 100 µM (inactive) | > 100 µM (inactive) | > 100 µM (inactive) | > 100 µM (inactive) | > 100 µM (inactive) | > 100 µM (inactive) | > 100 µM (inactive) | > 100 µM (inactive) | > 100 µM (inactive) | > 100 µM (inactive) | > 100 µM (inactive) | > 100 µM (inactive) | > 100 µM (inactive) | > 100 µM (inactive) | > 100 µM (inactive) | – | > 100 µM (inactive)
CCOC(=O)C(C(=O)c1ccccc1-c1ccccc1C(=O)O)=P(c1ccccc1)(c1ccccc1)c1ccccc1 | 16.5 µM (inactive) | 20 µM (inactive) | 30 µM (inactive) | 23.6 µM (inactive) | 25.8 µM (inactive) | 31.9 µM (inactive) | 25 µM (inactive) | 18.9 µM (inactive) | – | 30.5 µM (inactive) | 37.2 µM (inactive) | 18.3 µM (inactive) | – | 38.5 µM (inactive) | – | 25.4 µM (inactive) | 20.7 µM (inactive)
CCN(CC)CC(C)(C)C(=O)/C=C/c1cccc(/C=C/C(=O)C(C)(C)CN(CC)CC)c1 | 0.692 µM (active) | 1.3 µM (inactive) | 1.15 µM (inactive) | 0.305 µM (active) | 1.79 µM (inactive) | 1.74 µM (inactive) | 0.366 µM (active) | 1.05 µM (active) | 1.45 µM (inactive) | 0.303 µM (active) | 0.433 µM (active) | 0.219 µM (active) | – | 1.48 µM (inactive) | 1.63 µM (inactive) | 1.36 µM (inactive) | 0.337 µM (active)
Cc1cc2c(c(C#N)c1C)NC(=O)CCC2=O | > 100 µM (inactive) | > 100 µM (inactive) | > 100 µM (inactive) | > 100 µM (inactive) | – | > 100 µM (inactive) | > 100 µM (inactive) | > 100 µM (inactive) | – | > 100 µM (inactive) | 64 µM (inactive) | > 100 µM (inactive) | – | > 100 µM (inactive) | – | > 100 µM (inactive) | > 100 µM (inactive)
C=CC1(C(=O)O)CCC(C(C)(C)C)CC1 (stereo unspecified) | > 100 µM (inactive) | > 100 µM (inactive) | > 100 µM (inactive) | > 100 µM (inactive) | > 100 µM (inactive) | > 100 µM (inactive) | > 100 µM (inactive) | > 100 µM (inactive) | > 100 µM (inactive) | > 100 µM (inactive) | > 100 µM (inactive) | > 100 µM (inactive) | 86.1 µM (inactive) | > 100 µM (inactive) | > 100 µM (inactive) | > 100 µM (inactive) | –
CC(=O)OCC12CC(CC1OC(C)=O)c1ccccc12 (stereo unspecified) | > 100 µM (inactive) | > 100 µM (inactive) | > 100 µM (inactive) | > 100 µM (inactive) | > 100 µM (inactive) | > 100 µM (inactive) | > 100 µM (inactive) | – | > 100 µM (inactive) | > 100 µM (inactive) | – | > 100 µM (inactive) | – | > 100 µM (inactive) | > 100 µM (inactive) | > 100 µM (inactive) | > 100 µM (inactive)
C1=Cc2nc1c(-c1ccncc1)c1ccc([n-]1)c(-c1ccncc1)c1nc(c(-c3ccncc3)c3ccc([n-]3)c2-c2ccncc2)C=C1.[Zn+2] | > 100 µM (inactive) | > 100 µM (inactive) | > 100 µM (inactive) | – | > 100 µM (inactive) | > 100 µM (inactive) | > 100 µM (inactive) | > 100 µM (inactive) | > 100 µM (inactive) | > 100 µM (inactive) | – | > 100 µM (inactive) | > 100 µM (inactive) | > 100 µM (inactive) | > 100 µM (inactive) | – | > 100 µM (inactive)
C[C@@H]1CC[C@@]2(C)OC(c3ccccc3)[C@H](CO)N2C1=O (stereo partly specified) | > 100 µM (inactive) | > 100 µM (inactive) | > 100 µM (inactive) | > 100 µM (inactive) | > 100 µM (inactive) | > 100 µM (inactive) | > 100 µM (inactive) | > 100 µM (inactive) | – | > 100 µM (inactive) | > 100 µM (inactive) | > 100 µM (inactive) | – | – | > 100 µM (inactive) | > 100 µM (inactive) | –
O=c1ncccn1[C@@H]1O[C@H](CO)[C@@H](O)[C@@H]1F | – | > 100 µM (inactive) | > 100 µM (inactive) | > 68.2 µM (inactive) | > 100 µM (inactive) | > 100 µM (inactive) | > 100 µM (inactive) and > 61.9 µM (inactive) | – | > 100 µM (inactive) | > 100 µM (inactive) | > 100 µM (inactive) | > 100 µM (inactive) | > 100 µM (inactive) | > 100 µM (inactive) | > 100 µM (inactive) | > 100 µM (inactive) | –
CCOC(=O)C(Cc1cn(S(=O)(=O)c2ccccc2)c2ccccc12)(NC(C)=O)C(=O)OCC | 32.7 µM (inactive) | 26.3 µM (inactive) | 32.3 µM (inactive) | 15.2 µM (inactive) | 34.8 µM (inactive) | 29.1 µM (inactive) | 58.5 µM (inactive) | 30.3 µM (inactive) | – | – | – | 40.1 µM (inactive) | 15.3 µM (inactive) | 32.1 µM (inactive) | > 100 µM (inactive) | – | 25.1 µM (inactive)

From ChEMBL document CHEMBL1201862, “PubChem BioAssay data set” (2004)
